Test results: US9796704B2, “Substituted quinazolines as receptor-type kinase inhibitors” (Symphony Evolution, Inc., priority 2002, dated 2017)

How the values were obtained:
EphB4 = EphB4 (Homo sapiens (Human), UniProt P54760); assay: EphB4 kinase inhibition, 33P phosphoryl transfer assay (radiometric); type: biochemical
Procedure: Phosphorylated substrate products are quantified by scintillation spectrometry.
Kinase activity and compound inhibition are investigated using one or more of the three assay formats described below. The ATP concentrations are selected near its Michaelis-Menten constant (KM) for each individual kinase. Dose-response experiments are performed at ten different inhibitor concentrations in a 384-well plate format. […] These parameters are obtained by nonlinear regression algorithm built into ActivityBase software (available from ID Business Solutions Ltd., of Guildford, Surrey, UK). ^33P Phosphoryl Transfer Assay (Radiometric)
Greiner 384-well white clear bottom high binding plates (available from Greiner Bio-One, Inc., of Longwood, Fla.) are coated with 2 μg/well of protein or peptide substrate in a 50 μL volume overnight at ambient temperature. […] The coating solution is aspirated and the plates are washed once with 50 μL of assay buffer and padded dry. Subsequently compounds and enzymes are mixed with γ ^33P-ATP (3.3 μCi/nmol) in a total volume of 20 uL in suitable assay buffers (see Table 2). For example the final EphB4 reaction solution contains 20 mM TrisHCl, pH 7.5, 10 mM MgCl2, 0.01% Triton X-100, 0.1 mM NaVO3, 5 nM EphB4 enzyme and 5 μM ATP. […] The plates are subsequently washed 6-12 times with PBST or TBS buffer.

EGFR = EGFR (Homo sapiens (Human), UniProt P00533); assay: EGFR kinase inhibition, luciferase-coupled chemiluminescent assay (LCCA); conditions: read-out: EGFR IC50
EphA2 = EphA2 (Homo sapiens (Human), UniProt P29317); assay: EphA2 kinase inhibition, luciferase-coupled chemiluminescent assay (LCCA); conditions: read-out: EphA2 IC50
EphA2, sequence (P29317 598-890): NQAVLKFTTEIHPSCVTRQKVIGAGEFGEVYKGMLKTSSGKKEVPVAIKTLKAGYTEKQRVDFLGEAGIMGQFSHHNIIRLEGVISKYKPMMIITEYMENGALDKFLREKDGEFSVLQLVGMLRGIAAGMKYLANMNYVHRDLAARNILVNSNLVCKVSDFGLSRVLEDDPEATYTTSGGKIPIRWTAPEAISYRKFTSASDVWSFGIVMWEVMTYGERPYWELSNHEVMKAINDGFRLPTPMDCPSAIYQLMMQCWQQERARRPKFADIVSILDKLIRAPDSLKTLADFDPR
Procedure: Kinase activity and compound inhibition are investigated using one or more of the three assay formats described below. The ATP concentrations are selected near its Michaelis-Menten constant (KM) for each individual kinase. Dose-response experiments are performed at ten different inhibitor concentrations in a 384-well plate format. […] Typically H is close to unity.
In the LCCA assays, kinase activity is measured by the ATP consumption that is accurately measured by luciferase-coupled chemiluminescence. Greiner 384-well white clear bottom medium binding plates are used for LCCA. Briefly the kinase reaction is initiated by mixing compounds, ATP and kinases in a 20 μL volume. At the end of the kinase reaction, a 20 μL luciferase-luciferin mix is added and the chemiluminescent signal is read on a Wallac Victor^2 reader.

EphB4, sequence (P54760 605-890): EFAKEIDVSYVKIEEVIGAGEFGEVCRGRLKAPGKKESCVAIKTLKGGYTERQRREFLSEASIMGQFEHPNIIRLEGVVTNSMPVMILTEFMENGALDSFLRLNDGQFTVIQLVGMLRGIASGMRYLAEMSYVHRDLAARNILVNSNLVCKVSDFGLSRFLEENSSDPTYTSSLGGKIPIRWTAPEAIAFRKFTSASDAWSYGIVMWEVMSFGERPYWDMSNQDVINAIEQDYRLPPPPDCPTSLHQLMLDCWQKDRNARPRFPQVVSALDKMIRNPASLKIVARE
EGFR, sequence (P00533 672-1210): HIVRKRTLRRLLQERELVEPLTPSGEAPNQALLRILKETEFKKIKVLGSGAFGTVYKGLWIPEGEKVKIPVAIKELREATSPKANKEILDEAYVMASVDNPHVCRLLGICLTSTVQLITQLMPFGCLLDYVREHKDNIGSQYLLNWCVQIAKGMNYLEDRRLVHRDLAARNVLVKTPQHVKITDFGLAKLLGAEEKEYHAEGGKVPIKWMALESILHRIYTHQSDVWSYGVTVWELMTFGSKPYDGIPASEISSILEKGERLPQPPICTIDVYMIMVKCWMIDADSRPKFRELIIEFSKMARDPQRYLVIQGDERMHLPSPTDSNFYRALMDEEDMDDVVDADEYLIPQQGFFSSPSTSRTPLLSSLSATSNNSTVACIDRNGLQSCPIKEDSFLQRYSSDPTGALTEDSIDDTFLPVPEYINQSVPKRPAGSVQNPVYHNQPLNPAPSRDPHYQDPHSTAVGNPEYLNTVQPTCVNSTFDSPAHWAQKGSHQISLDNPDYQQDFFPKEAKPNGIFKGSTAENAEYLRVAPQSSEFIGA

IC50 (EphB4) [µM]	IC50 (EGFR) [µM]	IC50 (EphA2) [µM]	SMILES
< 0.05	< 0.05	< 0.05	COc1cc2c(Nc3cc(Cl)ccc3Cl)ncnc2cc1O[C@@H]1CO[C@@H]2[C@H]1OC[C@H]2F [Example 118, 1,4:3,6-dianhydro-2-deoxy-5-O-[4-[(2,5-dichlorophenyl)amino]-6-(methyloxy)quinazolin-7-yl]-2-fluoro-D-iditol]
0.05 to 1	< 0.05	0.05 to 1	COc1cc2c(Nc3ccc(Cl)c(Cl)c3)ncnc2cc1OCC1CN(C)CCO1 (stereo not drawn) [Example 151, N-(3,4-dichlorophenyl)-7-{[(4-methylmorpholin-2-yl)methyl]oxy}-6-(methyloxy)quinazolin-4-amine]
0.05 to 1	< 0.05	0.05 to 1	COc1cc2c(Nc3ccc(Cl)c(Cl)c3)ncnc2cc1OCC1CC1 [Example 182, 7-[(cyclopropylmethyl)oxy]-N-(3,4-dichlorophenyl)-6-(methyloxy)quinazolin-4-amine]
0.05 to 1	< 0.05	1 to 20	COc1cc2c(Nc3ccc(Cl)c(Cl)c3)ncnc2cc1OC1CCCC1 [Example 184, 7-(cyclopentyloxy)-N-(3,4-dichlorophenyl)-6-(methyloxy)quinazolin-4-amine]
0.05 to 1	< 0.05	0.05 to 1	COc1cc2c(Nc3ccc(Cl)c(Cl)c3)ncnc2cc1OCCC1CCCCC1 [Example 185, 7-[(2-cyclohexylethyl)oxy]-N-(3,4-dichlorophenyl)-6-(methyloxy)quinazolin-4-amine]
< 0.05	< 0.05	0.05 to 1	COc1cc2c(Nc3ccc(Cl)c(Cl)c3)ncnc2cc1OCC1CCCCC1 [Example 186, 7-[(cyclohexylmethyl)oxy]-N-(3,4-dichlorophenyl)-6-(methyloxy)quinazolin-4-amine]
0.05 to 1	< 0.05	0.05 to 1	COc1cc2c(Nc3ccc(Cl)c(Cl)c3)ncnc2cc1OCCC1OCCO1 [Example 188, N-(3,4-dichlorophenyl)-7-{[2-(1,3-dioxolan-2-yl)ethyl]oxy}-6-(methyloxy)quinazolin-4-amine]
0.05 to 1	< 0.05	0.05 to 1	COc1cc2c(Nc3ccc(Cl)c(Cl)c3)ncnc2cc1OCCC1OCCCO1 [Example 189, N-(3,4-dichlorophenyl)-7-{[2-(1,3-dioxan-2-yl)ethyl]oxy}-6-(methyloxy)quinazolin-4-amine]
0.05 to 1	< 0.05	0.05 to 1	COc1cc2c(Nc3ccc(Cl)c(Cl)c3)ncnc2cc1OCCN1CCOCC1 [Example 190, N-(3,4-dichlorophenyl)-6-(methyloxy)-7-[(2-morpholin-4-ylethyl)oxy]quinazolin-4-amine]
0.05 to 1	< 0.05	0.05 to 1	COc1cc2c(Nc3ccc(Cl)c(Cl)c3)ncnc2cc1OCCN1CCCC1 [Example 191, N-(3,4-dichlorophenyl)-6-(methyloxy)-7-[(2-pyrrolidin-1-ylethyl)oxy]quinazolin-4-amine]
0.05 to 1	< 0.05	1 to 20	COc1cc2c(Nc3ccc(Cl)c(Cl)c3)ncnc2cc1OCCN1CCCCC1 [Example 192, N-(3,4-dichlorophenyl)-6-(methyloxy)-7-[(2-piperidin-1-ylethyl)oxy]quinazolin-4-amine]
0.05 to 1	< 0.05	0.05 to 1	COc1cc2c(Nc3ccc(Cl)c(Cl)c3)ncnc2cc1OCC(=O)N1CCOCC1 [Example 195, N-(3,4-dichlorophenyl)-6-(methyloxy)-7-[(2-morpholin-4-yl-2-oxoethyl)oxy]quinazolin-4-amine]
0.05 to 1	< 0.05	0.05 to 1	COc1cc2c(Nc3ccc(Cl)c(Cl)c3)ncnc2cc1OCc1nc(-c2ccc(O)c(C(N)=O)c2)cs1 [Example 200, 5-[2-({[4-[(3,4-dichlorophenyl)amino]-6-(methyloxy)quinazolin-7-yl]oxy}methyl)-1,3-thiazol-4-yl]-2-hydroxybenzamide]
